Experimental data: US9624170B2, “4-(piperrazin-1-yl)-pyrrolidin-2-one compounds as monoacylglycerol lipase (MAGL) inhibitors” (TAKEDA PHARMACEUTICAL COMPANY LIMITED, priority 2013, dated 2017)

target: T1, human MAGL (His-hMAGL) (Homo sapiens, UniProt Q99685); experiment: Measurement of MAGL inhibitory activity by mass spectrometry; format: biochemical; conditions: MAGL inhibitory rate, test compound 10 μM, His-hMAGL, substrate 2-arachidonylglycerol, RapidFire-mass spectrometry
T1 construct: made in house; host or cells: Escherichia coli BL21(DE3)
T1 sequence (Q99685 1-303): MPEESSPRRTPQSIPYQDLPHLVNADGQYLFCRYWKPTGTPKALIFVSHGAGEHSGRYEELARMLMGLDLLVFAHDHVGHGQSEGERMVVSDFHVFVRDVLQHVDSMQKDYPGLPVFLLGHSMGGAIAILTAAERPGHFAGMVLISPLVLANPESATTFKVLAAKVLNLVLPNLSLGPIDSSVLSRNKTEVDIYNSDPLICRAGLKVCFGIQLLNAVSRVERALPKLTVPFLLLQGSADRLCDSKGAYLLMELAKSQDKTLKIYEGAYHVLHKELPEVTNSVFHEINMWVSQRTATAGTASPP
Outline: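 His-tagged human MAGL was reacted with 150 μM 2-arachidonylglycerol substrate (stock, added by 5 μL) for 10 min at room temperature, then stopped with formic acid. Arachidonic acid product was quantified by RapidFire–triple-quadrupole MS in negative SRM mode, corrected by arachidonic acid-d8, and converted to percent inhibition.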

Row | Structure (SMILES) | inhibition at 10 µM [%]
1 | CS(=O)(=O)Nc1cccc(-c2ccc(N3CC(N4CCN(C(=O)c5nccs5)CC4)CC3=O)cc2)c1 (centres unmarked) [Example 216, N-(4′-(2-oxo-4-(4-(1,3-thiazol-2-ylcarbonyl)piperazin-1-yl)pyrrolidin-1-yl)biphenyl-3-yl)methanesulfonamide] | 97
2 | O=C(c1nccs1)N1CCN(C2CC(=O)N(c3ccc(-c4ccsc4)cc3)C2)CC1 (centres unmarked) [Example 217, 4-(4-(1,3-thiazol-2-ylcarbonyl)piperazin-1-yl)-1-(4-(3-thienyl)phenyl)pyrrolidin-2-one] | 98
3 | O=C(c1nccs1)N1CCN(C2CC(=O)N(c3ccc(-c4cccs4)cc3)C2)CC1 (centres unmarked) [Example 218, 4-(4-(1,3-thiazol-2-ylcarbonyl)piperazin-1-yl)-1-(4-(2-thienyl)phenyl)pyrrolidin-2-one] | 99
4 | Cc1ccc(-c2ccc(N3CC(N4CCN(C(=O)c5nccs5)CC4)CC3=O)cc2)cc1 (centres unmarked) [Example 219, 1-(4′-methylbiphenyl-4-yl)-4-(4-(1,3-thiazol-2-ylcarbonyl)piperazin-1-yl)pyrrolidin-2-one] | 102
5 | Cc1ccccc1-c1cccc(N2CC(N3CCN(C(=O)c4cscn4)CC3)CC2=O)c1 (centres unmarked) [Example 220, 1-(2′-methylbiphenyl-3-yl)-4-(4-(1,3-thiazol-4-ylcarbonyl)piperazin-1-yl)pyrrolidin-2-one] | 103
6 | Cc1ccccc1-c1cccc(N2CC(N3CCN(C(=O)c4ncco4)CC3)CC2=O)c1 (centres unmarked) [Example 221, 1-(2′-methylbiphenyl-3-yl)-4-(4-(1,3-oxazol-2-ylcarbonyl)piperazin-1-yl)pyrrolidin-2-one] | 101
7 | O=C1Cc2cccc(-c3cccc(N4CC(N5CCN(C(=O)c6nccs6)CC5)CC4=O)c3)c2N1 (centres unmarked) [Example 222, 7-(3-(2-oxo-4-(4-(1,3-thiazol-2-ylcarbonyl)piperazin-1-yl)pyrrolidin-1-yl)phenyl)-1,3-dihydro-2H-indol-2-one] | 98
8 | O=C(c1cscn1)N1CCN(C2CC(=O)N(c3cccc(-c4cccnc4Cl)c3)C2)CC1 (centres unmarked) [Example 223, 1-(3-(2-chloropyridin-3-yl)phenyl)-4-(4-(1,3-thiazol-4-ylcarbonyl)piperazin-1-yl)pyrrolidin-2-one] | 101
9 | O=C(c1ncco1)N1CCN(C2CC(=O)N(c3cccc(-c4cccnc4Cl)c3)C2)CC1 (centres unmarked) [Example 224, 1-(3-(2-chloropyridin-3-yl)phenyl)-4-(4-(1,3-oxazol-2-ylcarbonyl)piperazin-1-yl)pyrrolidin-2-one] | 100
10 | CC1C(N2CCN(C(=O)c3nccs3)CC2)CC(=O)N1c1ccc(Oc2ccccc2)cc1 (centres unmarked) [Example 228, 5-Methyl-1-(4-phenoxyphenyl)-4-(4-(1,3-thiazol-2-ylcarbonyl)piperazin-1-yl)pyrrolidin-2-one] | 96
11 | CN1C(=O)Cc2cccc(-c3cccc(N4CC(N5CCN(C(=O)c6nccs6)CC5)CC4=O)c3)c21 (centres unmarked) [Example 229, 1-methyl-7-(3-(2-oxo-4-(4-(1,3-thiazol-2-ylcarbonyl)piperazin-1-yl)pyrrolidin-1-yl)phenyl)-1,3-dihydro-2H-indol-2-one] | 100
12 | CN1C(=O)Cc2c(-c3cccc(N4CC(N5CCN(C(=O)c6nccs6)CC5)CC4=O)c3)cccc21 (centres unmarked) [Example 230, 1-methyl-4-(3-(2-oxo-4-(4-(1,3-thiazol-2-ylcarbonyl)piperazin-1-yl)pyrrolidin-1-yl)phenyl)-1,3-dihydro-2H-indol-2-one] | 101
13 | CC1(C)C(=O)Nc2cccc(-c3cccc(N4CC(N5CCN(C(=O)c6nccs6)CC5)CC4=O)c3)c21 (centres unmarked) [Example 231, 3,3-dimethyl-4-(3-(2-oxo-4-(4-(1,3-thiazol-2-ylcarbonyl)piperazin-1-yl)pyrrolidin-1-yl)phenyl)-1,3-dihydro-2H-indol-2-one] | 100
14 | O=C(c1cscn1)N1CCN(C2CC(=O)N(c3cccc(-c4ccccc4Cl)c3)C2)CC1 (stereo not drawn) [Example 232, 1-(2′-Chlorobiphenyl-3-yl)-4-(4-(1,3-thiazol-4-ylcarbonyl)piperazin-1-yl)pyrrolidin-2-one (optical isomer)] | 99
